In US20160120863A1, “SLC2A TRANSPORTER INHIBITORS” (IOMET PHARMA LTD., priority 2013, published 2016):

How the values were obtained:
Type in all cases: cell-based
[1] = target: T1, human GLUT1 (Homo sapiens, UniProt P11166); assay: [3H]-deoxy-D-glucose uptake assay, GLUT1; conditions: [3H]-deoxy-D-glucose uptake in HEK293 cells stably expressing human GLUT1
T1 construct: expressed in transfected cells
T1 sequence (P11166 1-492): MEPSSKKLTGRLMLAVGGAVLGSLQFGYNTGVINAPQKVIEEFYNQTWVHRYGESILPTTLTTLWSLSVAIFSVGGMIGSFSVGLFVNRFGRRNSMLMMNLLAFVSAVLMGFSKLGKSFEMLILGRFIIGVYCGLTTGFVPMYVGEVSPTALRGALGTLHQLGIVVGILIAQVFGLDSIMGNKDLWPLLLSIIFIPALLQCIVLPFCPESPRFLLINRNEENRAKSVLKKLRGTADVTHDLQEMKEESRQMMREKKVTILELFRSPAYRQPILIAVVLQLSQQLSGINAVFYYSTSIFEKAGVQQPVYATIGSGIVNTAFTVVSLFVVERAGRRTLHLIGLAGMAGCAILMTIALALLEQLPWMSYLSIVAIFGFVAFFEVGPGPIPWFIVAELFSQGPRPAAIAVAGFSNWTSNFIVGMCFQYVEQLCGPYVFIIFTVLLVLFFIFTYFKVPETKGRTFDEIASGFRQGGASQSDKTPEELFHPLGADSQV
Outline: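 HEK293 cells stably overexpressing human GLUT1 or GLUT2, seeded at 60,000 per well, treated with compounds in glucose-free uptake buffer for 30 min at 37 °C. [3H]-deoxy-D-glucose uptake quantified by scintillation counting after ice-cold PBS washes; IC50 determined.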

[2] = target: T2, human GLUT2 (Homo sapiens, UniProt P11168); assay: [3H]-deoxy-D-glucose uptake assay, GLUT2; conditions: [3H]-deoxy-D-glucose uptake in HEK293 cells stably expressing human GLUT2
T2 construct: expressed in transfected cells
T2 sequence (P11168 1-524): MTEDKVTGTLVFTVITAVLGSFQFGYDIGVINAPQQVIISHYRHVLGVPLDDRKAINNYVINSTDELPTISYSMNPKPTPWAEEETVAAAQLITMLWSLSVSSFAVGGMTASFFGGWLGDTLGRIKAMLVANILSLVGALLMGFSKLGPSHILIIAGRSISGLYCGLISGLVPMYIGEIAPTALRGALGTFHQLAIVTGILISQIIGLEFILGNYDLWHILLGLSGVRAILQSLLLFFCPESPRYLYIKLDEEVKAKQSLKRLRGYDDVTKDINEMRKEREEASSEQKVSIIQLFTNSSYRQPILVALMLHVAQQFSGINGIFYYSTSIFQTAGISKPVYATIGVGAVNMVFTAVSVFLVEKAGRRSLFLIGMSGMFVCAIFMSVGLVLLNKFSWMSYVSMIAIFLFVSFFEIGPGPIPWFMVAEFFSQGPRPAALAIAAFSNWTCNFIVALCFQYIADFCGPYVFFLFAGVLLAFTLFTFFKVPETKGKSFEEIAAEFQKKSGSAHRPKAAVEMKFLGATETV
Description: (§1) HEK293 cells were engineered to stably express either human GLUT1, GLUT2, GLUt3 or GLUT4 by transfection with the pReceiver-Lv105 plasmid, containing either hGLUT1, hGLUT2, hGLUT3, or hGLUT4 gene constructs with lipofectamine 2000, hGLUT1- hGLUT2- hGLUT3- or hGLUT4-overexpressing polyclonal populations were isolated under purinomycin selective pressure (1 μg/ml) and maintained in Dulbecco's modified Eagle's medium supplemented with 1 μg/ml purinomycin+10% foetal bovine serum (FBS).
60,000 cells per well were seeded overnight into poly-D-lysine coasted 96-well plates. […] 90 μl of test compounds were added in glucose-free uptake buffer and cells were incubated at 37° C. for 30 min.
(§2) Cells were then washed twice with ice-cold PBS and 100 μl of Microscint-20 was added per well. Glucose uptake was quantified with a scintillation counter. The half maximal inhibitory concentration (IC50) (a measure of the effectiveness of the test compound in inhibiting glucose uptake) was determined.

[3] = target: T3, human GLUT4 (Homo sapiens, UniProt P14672); assay: [3H]-deoxy-D-glucose uptake assay, GLUT4; conditions: [3H]-deoxy-D-glucose uptake in HEK293 cells stably expressing human GLUT4
T3 construct: expressed in transfected cells
T3 sequence (P14672 1-509): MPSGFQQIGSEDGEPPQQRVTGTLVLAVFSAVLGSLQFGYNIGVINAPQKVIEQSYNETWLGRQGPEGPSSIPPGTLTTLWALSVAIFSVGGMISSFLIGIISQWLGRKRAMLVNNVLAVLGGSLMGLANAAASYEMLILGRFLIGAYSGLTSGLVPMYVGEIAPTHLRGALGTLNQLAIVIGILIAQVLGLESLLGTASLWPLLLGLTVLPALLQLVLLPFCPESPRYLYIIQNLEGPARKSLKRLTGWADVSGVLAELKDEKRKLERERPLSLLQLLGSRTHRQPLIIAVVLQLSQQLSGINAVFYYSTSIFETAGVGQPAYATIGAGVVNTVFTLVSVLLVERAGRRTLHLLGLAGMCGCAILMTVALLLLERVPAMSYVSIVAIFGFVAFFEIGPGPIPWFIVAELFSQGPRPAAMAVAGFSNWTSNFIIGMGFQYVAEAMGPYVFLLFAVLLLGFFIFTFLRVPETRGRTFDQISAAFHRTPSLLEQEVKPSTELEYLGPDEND
Description: as §1
(§3) 60,000 cells per well were seeded overnight into poly-D-lysine coasted 96-well plates. Following media removal, cells were washed twice in warm glucose-free uptake buffer (25 mM HEPES/KOH pH 7.4, 125 mM NaCl, 4.8 mM KCl, 1.2 mM MgSO4, 1.2 mM CaCl2, 1.2 mM KH2PO4). 90 μl of test compounds were added in glucose-free uptake buffer and cells were incubated at 37° C. for 30 min. 10 μl of [3H]-deoxy-D-glucose (0.25 μCi, 125 μM final assay concentration) was then added per well in glucose-free uptake buffer and uptake was allowed to proceed at 37° C. for 30 min.
as §2

[4] = target: T4, human GLUT3 (Homo sapiens, UniProt P11169); assay: [3H]-deoxy-D-glucose uptake assay, GLUT3; conditions: [3H]-deoxy-D-glucose uptake in HEK293 cells stably expressing human GLUT3
T4 construct: expressed in transfected cells
T4 sequence (P11169 1-496): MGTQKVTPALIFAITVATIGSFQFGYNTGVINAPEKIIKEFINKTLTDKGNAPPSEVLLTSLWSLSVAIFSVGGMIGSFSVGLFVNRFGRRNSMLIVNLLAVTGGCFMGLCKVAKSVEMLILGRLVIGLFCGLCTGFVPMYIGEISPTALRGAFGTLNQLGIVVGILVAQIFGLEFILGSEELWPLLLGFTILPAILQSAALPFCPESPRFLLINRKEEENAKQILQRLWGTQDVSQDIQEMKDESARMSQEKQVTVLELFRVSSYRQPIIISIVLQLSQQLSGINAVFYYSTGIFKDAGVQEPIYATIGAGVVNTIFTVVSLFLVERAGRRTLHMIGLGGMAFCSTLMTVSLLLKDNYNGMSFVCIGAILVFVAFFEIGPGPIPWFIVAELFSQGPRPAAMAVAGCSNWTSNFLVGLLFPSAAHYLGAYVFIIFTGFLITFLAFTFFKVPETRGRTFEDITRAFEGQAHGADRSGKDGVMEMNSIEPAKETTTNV
Description: as §1, §3, §2

GLUT1 pIC50 [1]	GLUT2 pIC50 [2]	GLUT4 pIC50 [3]	GLUT3 pIC50 [4]	SMILES
+++ (pIC50 ≧ 6.00)	++ (pIC50 5.00-5.99)	+++ (pIC50 ≧ 6.00)	+++ (pIC50 ≧ 6.00)	CC(=O)N1CCN(Cc2c(-c3ccc(Cl)cc3Cl)nc3ccc(NS(C)(=O)=O)cn23)CC1 [Compound 313]
++ (pIC50 5.00-5.99)	++ (pIC50 5.00-5.99)	+++ (pIC50 ≧ 6.00)	+++ (pIC50 ≧ 6.00)	CSc1ccc2nc(-c3ccc(Cl)cc3)c(CN3CCN(C(C)=O)CC3)n2c1 [Compound 377]
+++ (pIC50 ≧ 6.00)	+++ (pIC50 ≧ 6.00)	+++ (pIC50 ≧ 6.00)	+++ (pIC50 ≧ 6.00)	CS(=O)(=O)Nc1ccc2nc(-c3ccc(Cl)cc3Cl)c(CN3CCN(C(=O)c4ccnnc4)CC3)n2c1 [Compound 356]
+++ (pIC50 ≧ 6.00)	++ (pIC50 5.00-5.99)	+++ (pIC50 ≧ 6.00)	+++ (pIC50 ≧ 6.00)	COCC(=O)N1CCN(Cc2c(-c3ccc(Cl)cc3)nc3ccc(N(C)S(C)(=O)=O)cn23)CC1 [Compound 303]
++ (pIC50 5.00-5.99)	++ (pIC50 5.00-5.99)	–	–	O=C1CN(Cc2c(-c3ccc(Cl)cc3)nc3ccc(-c4ncon4)cn23)CCN1 [Compound 278]
++ (pIC50 5.00-5.99)	++ (pIC50 5.00-5.99)	–	–	Fc1cncc(F)c1-c1ccc2nc(-c3ccc(Cl)cc3)c(CN3CCOCC3)n2c1 [Compound 328]
++ (pIC50 5.00-5.99)	+− (pIC50 < 4.00)	–	–	CS(=O)(=O)c1ccc2nc(-c3ccc(Cl)cc3)c(CN3CCOCC3)n2c1 [Compound 379]
+++ (pIC50 ≧ 6.00)	++ (pIC50 5.00-5.99)	–	–	CC(=O)N1CCN(Cc2c(-c3ccc(Cl)cc3)nc3ccc(N(C)S(C)(=O)=O)cn23)CC1 [Compound 292]
+++ (pIC50 ≧ 6.00)	+++ (pIC50 ≧ 6.00)	–	–	Clc1ccc(-c2nc3ccc(-c4ncon4)cn3c2CN2CCn3ncnc3C2)c(Cl)c1 [Compound 329]
+++ (pIC50 ≧ 6.00)	++ (pIC50 5.00-5.99)	–	–	CS(=O)(=O)Nc1ccc2nc(-c3ccc(Cl)cc3Cl)c(CN3CCn4ncnc4C3)n2c1 [Compound 345]
+− (pIC50 < 4.00)	+− (pIC50 < 4.00)	–	–	c1ccc(-c2ccc3nc(C4CCOCC4)c(CN4CCOCC4)n3c2)cc1 [Compound 305]

Second part, the compound before the results:

SMILES	GLUT1 pIC50 [1]	GLUT2 pIC50 [2]	GLUT4 pIC50 [3]	GLUT3 pIC50 [4]
Fc1cccc(F)c1-c1ccc2nc(-c3ccc(Cl)cc3)c(CN3CCOCC3)n2c1 [Compound 143]	+++ (pIC50 ≧ 6.00)	+++ (pIC50 ≧ 6.00)	+++ (pIC50 ≧ 6.00)	+++ (pIC50 ≧ 6.00)
CC(=O)N1CCN(Cc2c(-c3ccc(Cl)cc3)nc3ccc(-c4ccccc4C#N)cn23)CC1 [Compound 214]	+++ (pIC50 ≧ 6.00)	+++ (pIC50 ≧ 6.00)	+++ (pIC50 ≧ 6.00)	+++ (pIC50 ≧ 6.00)
Fc1ccccc1-c1ccc2nc(-c3ccc(Cl)cc3)c(CN3CCOCC3)n2c1 [Compound 80]	+++ (pIC50 ≧ 6.00)	–	+++ (pIC50 ≧ 6.00)	+++ (pIC50 ≧ 6.00)
Cc1c(-c2ccccc2)ccc2nc(-c3ccc(Cl)cc3)c(CN3CCOCC3)n12 [Compound 170]	+++ (pIC50 ≧ 6.00)	–	+++ (pIC50 ≧ 6.00)	+++ (pIC50 ≧ 6.00)
Clc1ccc(-c2nc3ccc(-c4ccccc4Cl)cn3c2CN2CCOCC2)cc1 [Compound 116]	+++ (pIC50 ≧ 6.00)	–	+++ (pIC50 ≧ 6.00)	+++ (pIC50 ≧ 6.00)
CCC(=O)N1CCN(Cc2c(-c3ccc(Cl)cc3)nc3cnc(C4CC4)cn23)CC1 [Compound 253]	+++ (pIC50 ≧ 6.00)	+++ (pIC50 ≧ 6.00)	–	–
O=C(Cc1c(-c2ccc(Cl)cc2)nc2ccc(-c3ccccc3)cn12)N1CCOCC1 [Compound 301]	+− (pIC50 < 4.00)	++ (pIC50 5.00-5.99)	–	–
O=C1CCN(Cc2c(-c3ccc(Cl)cc3)nc3ccc(-c4ccccc4)cn23)CCN1 [Compound 227]	+++ (pIC50 ≧ 6.00)	+++ (pIC50 ≧ 6.00)	–	–
O=C(Nc1cccc(F)c1)N1CCN(Cc2c(-c3ccc(Cl)cc3)nc3ccc(-c4ccccc4)cn23)CC1 [Compound 127]	+− (pIC50 < 4.00)	+− (pIC50 < 4.00)	–	–
